In US8557816B2, “Aurora kinase modulators and method of use” (Amgen Inc., priority 2007, dated 2013):

Columns and labels:
AuroraA-TPX2 = target: T1, AuroraA-TPX2 (Homo sapiens, UniProt O14965); assay: AuroraA-TPX2 Homogeneous Time Resolved Fluorescent (HTRF) kinase assay; type: biochemical; conditions: average; read-out: AurA_IC50_IP (uM Avg)
T1 construct: 20 μL of AuroraA-TPX2 KD GST for a final volume of about 41 μL; GST
T1 sequence (O14965 133-383 limits assumed): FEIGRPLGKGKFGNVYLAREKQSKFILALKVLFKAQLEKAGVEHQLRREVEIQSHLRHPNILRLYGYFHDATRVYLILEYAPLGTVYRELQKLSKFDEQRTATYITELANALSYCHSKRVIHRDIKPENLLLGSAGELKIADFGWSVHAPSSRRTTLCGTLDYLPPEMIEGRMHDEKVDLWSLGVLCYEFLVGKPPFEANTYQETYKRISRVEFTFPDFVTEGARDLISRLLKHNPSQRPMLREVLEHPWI
T1 sequence (Q9ULW0 1-43 partner limits assumed): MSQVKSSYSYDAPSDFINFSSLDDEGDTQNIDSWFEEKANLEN
Summary of the method: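 HTRF read-out (Eu 615 nm to APC 655 nm) of phosphorylated biotin-PLK, detected with 0.02 nM europium anti-phosphoPLK antibody and 0.0005 mg/mL SA-APC after overnight equilibration.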

AuroraB = target: T2, AuroraB (Homo sapiens, UniProt Q96GD4); assay: AuroraB Homogeneous Time Resolved Fluorescent (HTRF) kinase assay; type: biochemical; conditions: average; read-out: AurB_IC50_IP (uM Avg)
T2 construct: 20 μL of AuroraB FL H is for a final volume of 41 μL; His
T2 sequence (Q96GD4 whole entry): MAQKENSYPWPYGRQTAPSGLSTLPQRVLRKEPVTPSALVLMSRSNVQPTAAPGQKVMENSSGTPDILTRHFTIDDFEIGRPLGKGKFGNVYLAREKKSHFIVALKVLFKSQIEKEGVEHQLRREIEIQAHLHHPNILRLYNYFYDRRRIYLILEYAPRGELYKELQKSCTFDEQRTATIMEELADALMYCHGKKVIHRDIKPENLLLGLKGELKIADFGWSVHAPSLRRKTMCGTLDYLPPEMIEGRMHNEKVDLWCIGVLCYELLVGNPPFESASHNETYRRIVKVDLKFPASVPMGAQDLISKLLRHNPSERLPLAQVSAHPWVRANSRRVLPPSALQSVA
Summary of the method: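 Read-out is time-resolved FRET between europium anti-phospho-H3 antibody and streptavidin-APC, added in EDTA buffer to stop the reaction and equilibrated about 60 min (ex 320, em 615 and 655 nm). Preceding reaction: ~90 min, full-length enzyme, ATP, 0.1 μM biotin-Histone H3 substrate, Mg/Mn HEPES buffer pH 7.5.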

| Structure (SMILES) | IC50 (AuroraA-TPX2) | IC50 (AuroraB) |
| --- | --- | --- |
| COc1cnc2c(Oc3ccc(Nc4nnc(-c5ccc(F)nc5)c5ccccc45)cc3)ccnc2c1 [compound 190, 4-(6-fluoro-3-pyridinyl)-N-(4-((7-(methyloxy)-1,5-naphthyridin-4-yl)oxy)phenyl)-1-phthalazinamine] | 0.052 µM | 0.005 µM |
| COc1cnc2c(Oc3ccc(Nc4nnc(-c5cccnc5F)c5ccccc45)cc3)ccnc2c1 [compound 191, 4-(2-fluoro-3-pyridinyl)-N-(4-((7-(methyloxy)-1,5-naphthyridin-4-yl)oxy)phenyl)-1-phthalazinamine] | 0.104 µM | 0.009 µM |
| COc1cnc2c(Oc3ccc(Nc4nnc(-c5ccc6sc(C)nc6c5)c5ccccc45)cc3)ccnc2c1 [compound 195, 4-(2-methyl-1,3-benzothiazol-5-yl)-N-(4-((7-(methyloxy)-1,5-naphthyridin-4-yl)oxy)phenyl)-1-phthalazinamine] | 0.088 µM | 0.005 µM |
| CCCc1cc(-c2ccccc2)nnc1Nc1ccc(Oc2ccnc3cc(C#N)ccc23)cc1 [compound 196, 4-((4-((6-phenyl-4-propyl-3-pyridazinyl)amino)phenyl)oxy)-7-quinolinecarbonitrile] | 0.672 µM | 0.006 µM |
| COc1cnc2c(Oc3ccc(Nc4nnc(-c5ccc(N6CCCCC6)cc5)c5ccccc45)cc3)ccnc2c1 [compound 198, N-(4-((7-(methyloxy)-1,5-naphthyridin-4-yl)oxy)phenyl)-4-(4-(1-piperidinyl)phenyl)-1-phthalazinamine] | 0.128 µM | 0.004 µM |
| CCc1cc(-c2ccc(C)cc2)nnc1Nc1ccc(Oc2ccnc3cc(OC)cnc23)cc1 [compound 199, 4-ethyl-N-(4-((7-(methyloxy)-1,5-naphthyridin-4-yl)oxy)phenyl)-6-(4-methylphenyl)-3-pyridazinamine] | 0.027 µM | 0.002 µM |
| COc1cnc2c(Oc3ccc(Nc4nnc(-c5ncco5)c5ccccc45)cc3)ccnc2c1 [compound 200, N-(4-((7-(methyloxy)-1,5-naphthyridin-4-yl)oxy)phenyl)-4-(1,3-oxazol-2-yl)-1-phthalazinamine] | 0.087 µM | 0.003 µM |
| COc1cnc2c(Oc3ccc(Nc4nnc(-c5ccc(Cl)c(Cl)c5)c5ccccc45)cc3)ccnc2c1 [compound 201, 4-(3,4-dichlorophenyl)-N-(4-((7-(methyloxy)-1,5-naphthyridin-4-yl)oxy)phenyl)-1-phthalazinamine] | 0.035 µM | 0.006 µM |
| COc1cnc2c(Oc3ccc(Nc4nnc(-c5ccc6c(ccn6C)c5)c5ccccc45)cc3)ccnc2c1 [compound 204, 4-(1-methyl-1H-indol-5-yl)-N-(4-((7-(methyloxy)-1,5-naphthyridin-4-yl)oxy)phenyl)-1-phthalazinamine] | 0.026 µM | 0.003 µM |
| CCc1cc(-c2ccc(C)s2)nnc1Nc1ccc(Oc2ccnc3cc(OC)cnc23)cc1 [compound 205, 4-ethyl-N-(4-((7-(methyloxy)-1,5-naphthyridin-4-yl)oxy)phenyl)-6-(5-methyl-2-thienyl)-3-pyridazinamine] | 0.06 µM | 0.004 µM |
| N#Cc1ccc2c(Sc3ccc(Nc4nnc(-c5ccccc5)c5ccccc45)cc3)ccnc2c1 [compound 208, 4-((4-((4-phenyl-1-phthalazinyl)amino)phenyl)thio)-7-quinolinecarbonitrile] | 0.18 µM | 0.007 µM |
| CCc1cc(-c2cc(C)cs2)nnc1Nc1ccc(Oc2ccnc3cc(OC)cnc23)cc1 [compound 210, 4-ethyl-N-(4-((7-(methyloxy)-1,5-naphthyridin-4-yl)oxy)phenyl)-6-(4-methyl-2-thienyl)-3-pyridazinamine] | 0.031 µM | 0.002 µM |
| COc1cnc2c(Oc3ccc(Nc4nnc(-c5cn[nH]c5)c5ccccc45)cc3)ccnc2c1 [compound 212, N-(4-((7-(methyloxy)-1,5-naphthyridin-4-yl)oxy)phenyl)-4-(1H-pyrazol-4-yl)-1-phthalazinamine] | 0.478 µM | 0.018 µM |
| COc1cnc2c(Oc3ccc(Nc4nnc(-c5ccc(OC)c(C)c5)c5ccccc45)cc3)ccnc2c1 [compound 213, 4-(3-methyl-4-(methyloxy)phenyl)-N-(4-((7-(methyloxy)-1,5-naphthyridin-4-yl)oxy)phenyl)-1-phthalazinamine] | 0.079 µM | 0.011 µM |
| COc1cnc2c(Oc3ccc(Nc4nnc(-c5ccc(F)c(F)c5)c5ccccc45)cc3)ccnc2c1 [compound 214, 4-(3,4-difluorophenyl)-N-(4-((7-(methyloxy)-1,5-naphthyridin-4-yl)oxy)phenyl)-1-phthalazinamine] | 0.085 µM | 0.007 µM |
| COc1cnc2c(Oc3ccc(Nc4nnc(-c5cncnc5)c5ccccc45)cc3)ccnc2c1 [compound 215, N-(4-((7-(methyloxy)-1,5-naphthyridin-4-yl)oxy)phenyl)-4-(5-pyrimidinyl)-1-phthalazinamine] | 0.743 µM | 0.024 µM |
| COc1cnc2c(Oc3ccc(Nc4nnc(-c5cnn(C)c5)c5ccccc45)cc3)ccnc2c1 [compound 216, N-(4-((7-(methyloxy)-1,5-naphthyridin-4-yl)oxy)phenyl)-4-(1-methyl-1H-pyrazol-4-yl)-1-phthalazinamine] | 0.16 µM | 0.006 µM |
| N#Cc1ccc(-c2nnc(Nc3ccc(Oc4ccnc5cc(C#N)ccc45)cc3)c3ccccc23)cc1 [compound 217, 4-((4-((4-(4-cyanophenyl)-1-phthalazinyl)amino)phenyl)oxy)-7-quinolinecarbonitrile] | 0.454 µM | 0.016 µM |
| COc1cnc2c(Oc3ccc(Nc4nnc(-c5ccccc5)c5ccsc45)cc3)ccnc2c1 [compound 218, N-(4-((7-(methyloxy)-1,5-naphthyridin-4-yl)oxy)phenyl)-4-phenylthieno[2,3-d]pyridazin-7-amine] | 0.027 µM | 0.003 µM |

Now those with a lower IC50 (AuroraA-TPX2), led by results:

| IC50 (AuroraA-TPX2) | IC50 (AuroraB) | Structure (SMILES) |
| --- | --- | --- |
| 0.023 µM | 0.005 µM | COc1cnc2c(Oc3ccc(Nc4nnc(-c5ccc(F)c(Cl)c5)c5ccccc45)cc3)ccnc2c1 [compound 193, 4-(3-chloro-4-fluorophenyl)-N-(4-((7-(methyloxy)-1,5-naphthyridin-4-yl)oxy)phenyl)-1-phthalazinamine] |
| 0.023 µM | 0.01 µM | COc1cnc2c(Oc3ccc(Nc4nnc(-c5ccc(N(C)C)cc5)c5ccccc45)cc3)ccnc2c1 [compound 194, 4-(4-(dimethylamino)phenyl)-N-(4-((7-(methyloxy)-1,5-naphthyridin-4-yl)oxy)phenyl)-1-phthalazinamine] |
| 0.022 µM | 0.009 µM | COc1cnc2c(Oc3ccc(Nc4nnc(-c5ncc(C)s5)c5ccccc45)cc3)ccnc2c1 [compound 189, N-(4-((7-(methyloxy)-1,5-naphthyridin-4-yl)oxy)phenyl)-4-(5-methyl-1,3-thiazol-2-yl)-1-phthalazinamine] |
| 0.02 µM | 0.002 µM | Cn1cncc1-c1cc2nccc(Oc3ccc(Nc4nnc(-c5ccccc5)c5ccccc45)cc3)c2s1 [compound 202, N-(4-((2-(1-methyl-1H-imidazol-5-yl)thieno[3,2-b]pyridin-7-yl)oxy)phenyl)-4-phenyl-1-phthalazinamine] |
| 0.017 µM | 0.006 µM | COc1cnc2c(Oc3ccc(Nc4nnc(-c5cc(C)cc(C)c5)c5ccccc45)cc3)ccnc2c1 [compound 188, 4-(3,5-dimethylphenyl)-N-(4-((7-(methyloxy)-1,5-naphthyridin-4-yl)oxy)phenyl)-1-phthalazinamine] |
| 0.017 µM | 0.003 µM | COc1cnc2c(Oc3ccc(Nc4nnc(-c5ccc6cc[nH]c6c5)c5ccccc45)cc3)ccnc2c1 [compound 206, 4-(1H-indol-6-yl)-N-(4-(7-methoxy-1,5-naphthyridin-4-yloxy)phenyl)phthalazin-1-amine] |
| 0.012 µM | 0.001 µM | COc1cnc2c(Oc3ccc(Nc4nnc(-c5ccc(C)c(N)c5)c5ccccc45)cc3)ccnc2c1 [compound 209, 4-(3-amino-4-methylphenyl)-N-(4-((7-(methyloxy)-1,5-naphthyridin-4-yl)oxy)phenyl)-1-phthalazinamine] |
| 0.008 µM | 0.002 µM | Cc1ccc(-c2nnc(Nc3ccc(Oc4ccnc5cc(-c6cncn6C)sc45)cc3)c3ccccc23)cc1 [compound 203, N-(4-((2-(1-methyl-1H-imidazol-5-yl)thieno[3,2-b]pyridin-7-yl)oxy)phenyl)-4-(4-methylphenyl)-1-phthalazinamine] |
| 0.006 µM | 0.004 µM | COc1cnc2c(Oc3ccc(Nc4nnc(-c5ccc(C)cc5)c5ccccc45)cc3F)ccnc2c1 [compound 187, N-(3-fluoro-4-((7-(methyloxy)-1,5-naphthyridin-4-yl)oxy)phenyl)-4-(4-methylphenyl)-1-phthalazinamine] |
| 0.006 µM | 0.001 µM | COc1cc2nccc(Oc3ccc(Nc4nnc(-c5ccc(C)cc5)c5ccccc45)cc3)c2cc1C(N)=O [compound 211, 7-(methyloxy)-4-((4-((4-(4-methylphenyl)-1-phthalazinyl)amino)phenyl)oxy)-6-quinolinecarboxamide] |
